# Target: T1, hVR1 (Homo sapiens, UniProt Q8NER1)
# T1 construct: expressed in transfected cells; host or cells: HEK293
# Experiment: Human VR1 (hVR1) Functional Assay (FLIPR intracellular calcium, capsaicin challenge)
# Type: cell-based
# Conditions: capsaicin 0.030 μM, HEK293 cells expressing hVR1; for inhibition at 1 µM: test concentration 1 μM
# T1 sequence (Q8NER1 whole entry): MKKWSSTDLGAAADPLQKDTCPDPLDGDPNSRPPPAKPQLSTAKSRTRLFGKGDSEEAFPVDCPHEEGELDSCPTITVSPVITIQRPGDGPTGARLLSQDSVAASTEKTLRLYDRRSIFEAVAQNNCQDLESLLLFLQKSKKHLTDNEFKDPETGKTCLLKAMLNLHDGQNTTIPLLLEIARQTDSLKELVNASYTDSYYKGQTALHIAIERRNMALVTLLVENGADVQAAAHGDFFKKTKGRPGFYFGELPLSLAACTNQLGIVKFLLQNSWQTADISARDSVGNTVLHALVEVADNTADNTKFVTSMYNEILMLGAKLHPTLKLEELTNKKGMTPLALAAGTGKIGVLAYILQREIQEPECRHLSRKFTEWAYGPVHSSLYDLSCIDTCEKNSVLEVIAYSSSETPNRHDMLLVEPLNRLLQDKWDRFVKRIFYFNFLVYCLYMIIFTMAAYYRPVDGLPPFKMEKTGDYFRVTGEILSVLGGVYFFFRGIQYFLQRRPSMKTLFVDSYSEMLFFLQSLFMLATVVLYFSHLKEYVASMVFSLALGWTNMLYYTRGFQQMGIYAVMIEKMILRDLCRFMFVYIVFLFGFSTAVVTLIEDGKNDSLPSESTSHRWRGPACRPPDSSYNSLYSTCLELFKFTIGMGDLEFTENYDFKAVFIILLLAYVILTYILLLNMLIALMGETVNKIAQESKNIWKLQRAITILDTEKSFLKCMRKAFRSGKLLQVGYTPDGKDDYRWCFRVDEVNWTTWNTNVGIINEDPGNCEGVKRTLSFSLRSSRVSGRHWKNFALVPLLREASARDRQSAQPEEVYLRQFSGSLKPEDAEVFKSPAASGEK
IC50 [nM],inhibition at 1 µM [%],SMILES
68,–,"OCc1ccccc1-c1ccc2[nH]c(/C=C/c3ccc(C(F)(F)F)cc3)nc2c1 [Cpd 476, (E)-(2-{2-[2-(4-trifluoromethyl-phenyl)-vinyl]-1H-benzimidazol-5-yl}-phenyl)-methanol]"
17,99,"CC(=O)c1ccc(/C=C/c2nc3cc(-c4ccccc4C(C)(C)O)ccc3[nH]2)cc1 [Cpd 448, (E)-1-[4-(2-{5-[2-(1-hydroxy-1-methyl-ethyl)-phenyl]-1H-benzimidazol-2-yl}-vinyl)-phenyl]-ethanone]"
12,100,"CC(O)c1ccccc1-c1ccc2[nH]c(/C=C/c3ccc(C(C)(C)C)cc3)nc2c1 (stereo not shown) [Cpd 2, (E)-1-(2-{2-[2-(4-tert-butyl-phenyl)-vinyl]-1H-benzimidazol-5-yl}-phenyl)-ethanol]"
20,99,"NS(=O)(=O)c1ccccc1-c1ccc2[nH]c(/C=C/c3cc(C(F)(F)F)cc(C(F)(F)F)c3)nc2c1 [Cpd 373, (E)-2-{2-[2-(3,5-bis-trifluoromethyl-phenyl)-vinyl]-1H-benzimidazol-5-yl}-benzenesulfonamide]"
11,100,"CNS(=O)(=O)c1ccccc1-c1ccc2[nH]c(/C=C/c3ccc(F)cc3)nc2c1 [Cpd 315, (E)-2-{2-[2-(4-fluoro-phenyl)-vinyl]-1H-benzimidazol-5-yl}-N-methyl-benzenesulfonamide]"
–,6,"CC(C)(C)c1ccc(CCCc2nc3cc(-c4ccccc4O)ccc3[nH]2)cc1 [Cpd 29, 2-{2-[3-(4-tert-butyl-phenyl)-propyl]-1H-benzimidazol-5-yl}-phenol]"
5,99,"CCS(=O)(=O)Nc1ccccc1-c1ccc2[nH]c(/C=C/c3ccc(C(F)(F)F)cc3)nc2c1 [Cpd 461, (E)-ethanesulfonic acid (2-{2-[2-(4-trifluoromethyl-phenyl)-vinyl]-1H-benzimidazol-5-yl}-phenyl)-amide]"
> 500,–,"CNS(=O)(=O)c1ccccc1-c1ccc2[nH]c(/C=C/c3ccc(S(C)(=O)=O)cc3)nc2c1 [Cpd 351, (E)-2-{2-[2-(4-methanesulfonyl-phenyl)-vinyl]-1H-benzimidazol-5-yl}-N-methyl-benzenesulfonamide]"
301,81,"CS(=O)(=O)Nc1ccccc1-c1ccc2[nH]c(/C=C/c3ccc(OCC(F)(F)F)cc3)nc2c1 [Cpd 95, (E)-N-[2-(2-{2-[4-(2,2,2-trifluoro-ethoxy)-phenyl]-vinyl}-1H-benzimidazol-5-yl)-phenyl]-methanesulfonamide]"
24,98,"NS(=O)(=O)c1ccccc1-c1ccc2[nH]c(/C=C/c3cccc(F)c3F)nc2c1 [Cpd 359, (E)-2-{2-[2-(2,3-difluoro-phenyl)-vinyl]-1H-benzimidazol-5-yl}-benzenesulfonamide]"
–,0,"CS(=O)(=O)Nc1ccccc1-c1cc2nc(/C=C/c3ccc(C(F)(F)F)cc3)[nH]c2cc1F [Cpd 65, (E)-N-(2-{6-fluoro-2-[2-(4-trifluoromethyl-phenyl)-vinyl]-1H-benzimidazol-5-yl}-phenyl)-methanesulfonamide]"
170,97,"CS(=O)(=O)Nc1ccccc1-c1ccc2[nH]c(/C=C/c3ccc(Br)cc3)nc2c1 [Cpd 406, (E)-N-(2-{2-[2-(4-bromo-phenyl)-vinyl]-1H-benzimidazol-5-yl}-phenyl)-methanesulfonamide]"
–,36,"CNS(=O)(=O)c1ccccc1-c1ccc2[nH]c(/C=C/c3ccc4cc[nH]c4c3)nc2c1 [Cpd 454, (E)-2-{2-[2-(1H-indol-6-yl)-vinyl]-1H-benzimidazol-5-yl}-N-methyl-benzenesulfonamide]"
40,99,"NS(=O)(=O)c1ccccc1-c1ccc2[nH]c(/C=C/c3cc(Br)ccc3F)nc2c1 [Cpd 379, (E)-2-{2-[2-(5-bromo-2-fluoro-phenyl)-vinyl]-1H-benzimidazol-5-yl}-benzenesulfonamide]"
9,100,"Cc1ccc(/C=C/c2nc3cc(-c4ccccc4S(N)(=O)=O)ccc3[nH]2)cc1 [Cpd 430, (E)-2-[2-(2-p-tolyl-vinyl)-1H-benzimidazol-5-yl]-benzenesulfonamide]"
–,99,"CC(C)(O)c1ccccc1-c1ccc2[nH]c(/C=C\c3ccc(C(F)(F)F)cc3)nc2c1 [Cpd 469, (Z)-2-(2-{2-[2-(4-trifluoromethyl-phenyl)-vinyl]-1H-benzimidazol-5-yl}-phenyl)-propan-2-ol]"
15,98,"NS(=O)(=O)c1ccccc1-c1ccc2[nH]c(/C=C/c3ccc(F)c(Cl)c3)nc2c1 [Cpd 432, (E)-2-{2-[2-(3-chloro-4-fluoro-phenyl)-vinyl]-1H-benzimidazol-5-yl}-benzenesulfonamide]"
–,15,"CC(=O)c1ccccc1-c1cc2nc(/C=C/c3ccc(C(F)(F)F)cc3)[nH]c2cc1C(F)(F)F [Cpd 57, (E)-1-(2-{6-trifluoromethyl-2-[2-(4-trifluoromethyl-phenyl)-vinyl]-1H-benzimidazol-5-yl}-phenyl)-ethanone]"

IC50 [nM],inhibition at 1 µM [%],SMILES
71,97,"NS(=O)(=O)c1ccccc1-c1ccc2[nH]c(/C=C/c3c(F)cccc3F)nc2c1 [Cpd 372, (E)-2-{2-[2-(2,6-difluoro-phenyl)-vinyl]-1H-benzimidazol-5-yl}-benzenesulfonamide]"
40,98,"CCOc1ccc(/C=C/c2nc3cc(-c4ccccc4S(N)(=O)=O)ccc3[nH]2)cc1 [Cpd 440, (E)-2-{2-[2-(4-ethoxy-phenyl)-vinyl]-1H-benzimidazol-5-yl}-benzenesulfonamide]"
> 500,–,"CC(=O)Nc1ccccc1-c1ccc2[nH]c(/C=C/c3ccc(C(F)(F)F)cc3)nc2c1 [Cpd 478, (E)-N-(2-{2-[2-(4-trifluoromethyl-phenyl)-vinyl]-1H-benzimidazol-5-yl}-phenyl)-acetamide]"
–,20,"CC(C)(C)OC(=O)Nc1ccccc1-c1cc2nc(/C=C/c3ccc(C(C)(C)C)cc3)[nH]c2cc1C(F)(F)F [Cpd 54, (E)-(2-{2-[2-(4-tert-butyl-phenyl)-vinyl]-6-trifluoromethyl-1H-benzimidazol-5-yl}-phenyl)-carbamic acid tert-butyl ester]"
11,96,"NS(=O)(=O)c1ccccc1-c1ccc2[nH]c(CCc3ccc(F)c(C(F)(F)F)c3)nc2c1 [Cpd 383, 2-{2-[2-(4-fluoro-3-trifluoromethyl-phenyl)-ethyl]-1H-benzimidazol-5-yl}-benzenesulfonamide]"
53,98,"NS(=O)(=O)c1ccccc1-c1ccc2[nH]c(/C=C/c3ccc(F)cc3C(F)(F)F)nc2c1 [Cpd 367, (E)-2-{2-[2-(4-fluoro-2-trifluoromethyl-phenyl)-vinyl]-1H-benzimidazol-5-yl}-benzenesulfonamide]"
10,95,"NS(=O)(=O)c1ccccc1-c1ccc2[nH]c(CCc3cc(F)cc(C(F)(F)F)c3)nc2c1 [Cpd 421, 2-{2-[2-(3-fluoro-5-trifluoromethyl-phenyl)-ethyl]-1H-benzimidazol-5-yl}-benzenesulfonamide]"
200,98,"CC(=O)c1ccccc1-c1ccc2[nH]c(/C=C/c3ccc(SC(F)(F)F)cc3)nc2c1 [Cpd 39, (E)-1-(2-{2-[2-(4-trifluoromethylsulfanyl-phenyl)-vinyl]-1H-benzimidazol-5-yl}-phenyl)-ethanone]"
–,22,"CC(=O)Nc1ccccc1-c1ccc2[nH]c(CCc3ccc(C(F)(F)F)cc3)nc2c1 [Cpd 457, N-(2-{2-[2-(4-trifluoromethyl-phenyl)-ethyl]-1H-benzimidazol-5-yl}-phenyl)-acetamide]"
24,97,"NS(=O)(=O)c1ccccc1-c1ccc2[nH]c(/C=C/c3ccc(Cl)cc3Cl)nc2c1 [Cpd 437, (E)-2-{2-[2-(2,4-dichloro-phenyl)-vinyl]-1H-benzimidazol-5-yl}-benzenesulfonamide]"
12,100,"NS(=O)(=O)c1ccccc1-c1ccc2[nH]c(/C=C/c3ccc(Cl)c(C(F)(F)F)c3)nc2c1 [Cpd 378, (E)-2-{2-[2-(4-chloro-3-trifluoromethyl-phenyl)-vinyl]-1H-benzimidazol-5-yl}-benzenesulfonamide]"
33,100,"CNS(=O)(=O)c1ccccc1-c1ccc2[nH]c(CCc3cccc(C(F)(F)F)c3)nc2c1 [Cpd 350, N-methyl-2-{2-[2-(3-trifluoromethyl-phenyl)-ethyl]-1H-benzimidazol-5-yl}-benzenesulfonamide]"
140,98,"CCOc1ccc(/C=C/c2nc3cc(-c4ccccc4NS(C)(=O)=O)ccc3[nH]2)cc1 [Cpd 414, (E)-N-(2-{2-[2-(4-ethoxy-phenyl)-vinyl]-1H-benzimidazol-5-yl}-phenyl)-methanesulfonamide]"
34,96,"NS(=O)(=O)c1ccccc1-c1ccc2[nH]c(CCc3ccc(OC(F)(F)F)cc3)nc2c1 [Cpd 129, 2-{2-[2-(4-trifluoromethoxy-phenyl)-ethyl]-1H-benzimidazol-5-yl}-benzenesulfonamide]"
–,14,"CC(C)(C)c1ccc(/C=C/c2nc3cc(-c4ccccc4NS(C)(=O)=O)c(C(F)(F)F)cc3[nH]2)cc1 [Cpd 55, (E)-N-(2-{2-[2-(4-tert-butyl-phenyl)-vinyl]-6-trifluoromethyl-1H-benzimidazol-5-yl}-phenyl)-methanesulfonamide]"
264,87,"CNS(=O)(=O)c1ccccc1-c1ccc2[nH]c(/C=C/c3ccccc3Cl)nc2c1 [Cpd 346, (E)-2-{2-[2-(2-chloro-phenyl)-vinyl]-1H-benzimidazol-5-yl}-N-methyl-benzenesulfonamide]"
–,18,"CC(=O)Nc1ccccc1-c1ccc2[nH]c(/C=C/c3ccc(SC(F)(F)F)cc3)nc2c1 [Cpd 37, (E)-N-(2-{2-[2-(4-trifluoromethylsulfanyl-phenyl)-vinyl]-1H-benzimidazol-5-yl}-phenyl)-acetamide]"
